Experimental data taken from US20230121313A1 (priority 2019, published 2023).
Where two headings read alike, the source gives them in different places. Marks after values point to notes of the source that are not given here.

How the values were obtained:
[1] = tested on: MDD/TRD subjects; details: 52-week safety study in MDD/TRD subjects (Berman et al., 2011); cited from earlier work
[2] = tested on: subjects with MDD at imminent risk for suicide; details: double-blind phase; all randomized analysis set; N=36
From the text: Among 68 randomized subjects, 66 were included in the safety analysis set (defined as receiving at least one dose of study medication in the double-blind phase). […] All safety subjects (N=66) were included in the intent-to-treat (ITT) analysis set (defined as receiving at least one dose of study medication during the double-blind phase and having both the baseline and the Day 1, 4-hour postdose evaluation for the MADRS total score). Forty-nine subjects were included in the safety (FU) analysis set (defined as all subjects who have at least 1 visit during the follow up phase).

[3] = Pharmacokinetics of intranasal esketamine 28, 56, 84 mg in healthy subjects (Example 9); details: for AUClast / AUC∞ / Cmax / t1/2 / Metabolite/Parent Ratio AUClast / Metabolite/Parent Ratio AUC∞ / Metabolite/Parent Ratio Cmax: mean; for Tmax: median; for Metabolite/Parent Ratio AUClast / Metabolite/Parent Ratio AUC∞ / Metabolite/Parent Ratio Cmax: noresketamine to esketamine
Experimental: This was an open-label, single-center study. The subjects were healthy Caucasian men and women, 20 to 55 years of age, inclusive. […] The solution consisted of:
Pharmacokinetic blood samples for measurement of esketamine and noresketamine concentrations in plasma were collected from predose until up to 24 hours after each intranasal esketamine regimen on Day 1 of each period.
Blood samples (4 mL each) for determination of esketamine and noresketamine plasma concentrations were collected into the appropriate collection tube (e.g., Vacutainer®) at timepoints 0.00, 0.12, 0.20, 0.37, 0.53, 0.67, 0.83, 1.00, 1.25, 1.50, 2.00, 3.00, 4.00, 6.00, 9.00, 12.00, 18.00, and 24.00 h. The total amount of blood to be drawn for clinical laboratory tests and PK evaluations is approximately 327 mL.
Plasma samples were analyzed for esketamine and noresketamine concentrations using the validated, specific and sensitive liquid chromatography coupled to tandem mass spectrometry (LC-MS/MS) achiral method of Example 8.
Serial PK blood samples (4 mL each) were collected for a 24-hour period from each subject (Periods 1, 2, and 3).
The following key parameters of esketamine and noresketamine in plasma were calculated using noncompartmental methods and actual sampling times: Cmax, tmax, AUClast, AUC∞, t1/2,λ, and λz.

[4] = tested on: PCG/RSC of adult female Sprague Dawley rats; details: 3 hours after a single intraperitoneal injection (Jevtovic-Todorovic 2000); cited from earlier work
[5] = for QC sample long-term storage stability: human plasma QC sample at −20° C.; for QC sample bench-top stability: human plasma QC sample; for QC sample bench-top stability / Processed sample stability: room temperature; for Stock solution stability (spike solutions): ketamine/norketamine spike solutions at −20° C.; for Whole Blood Stability: room temperature and in an ice-water bath (0-4° C.)
Experimental: This example provides an LC-MS/MS method for the determination of ketamine and norketamine in sodium heparin human plasma using ketamine-d4 and norketamine-d4 as the respective internal standards (IS).
Retention time and peak area were determined by Analyst® Data Acquisition/Processing Software (Version 1.4.2). Analyte concentrations were obtained from a calibration curve constructed by plotting the peak area ratio versus the concentration using Watson LIMS (Version 7.3). Watson LIMS and Microsoft Office Excel were used for statistical calculations. When Office Excel was used the calculations were 100% audited. Concentrations were calculated using linear regression according to the following equation: […]
Selectivity is defined as the ability of a chromatographic method to measure a response from the analyte without interference from the biological matrix. This was accomplished by evaluating six individual lots of human plasma prepared as blank and at the lower limit of quantitation (LLOQ, 0.500 ng/mL).
The matrix effect is defined as the suppression or enhancement of ionization of analytes by the presence of matrix components in the biological samples. See, e.g., C. T. Viswanathan, “Quantitative Bioanalytical Methods Validation and Implementation: Best Practices for Chromatographic and Ligand Binding Assays,” Pharmaceutical Research, Vol. 24, No. 10, October 2007, p. 1969. The matrix effect was evaluated by extracting single replicates of six lots of blank human plasma and spiking each lot at the Low and High QC concentration levels (1.50 ng/mL and 375 ng/mL) post extraction. The area ratios of the six lots of post-extraction spiked plasma samples were compared to the mean area ratio obtained from three replicates of the neat solution prepared at the same concentration level in purified water.
The linearity of the method was evaluated at a linear range of 0.500/0.500-500/500 ng/mL for ketamine/norketamine in human plasma. Linear regression (with a weighting factor of 1/x2) was used to produce the best fit for the concentration-detector response relationship for ketamine and norketamine in human plasma.
The validation was conducted with a target LLOQ of 0.500 ng/mL for ketamine and norketamine in human plasma. To evaluate the sensitivity, six QC samples prepared at the LLOQ were analyzed during three individual batch runs as part of the intra-run and inter-run accuracy and precision for the method. The concentrations were calculated with the calibration curve.
The intra-run and inter-run accuracy and precision of the method were investigated at four different QC concentration levels (0.500 ng/mL (LLOQ), 1.50 ng/mL, 80.0 ng/mL, and 375 ng/mL).
Recoveries were calculated according to the following formula: […]
To assess the reinjection reproducibility, an analyte batch containing a standard curve and QC samples was reinjected after being kept at room temperature for 161.5 hours.

[6] = noresketamine in plasma after intranasal esketamine 28 mg (Treatment A)
[7] = noresketamine in plasma after intranasal esketamine 56 mg (Treatment B)
[8] = noresketamine in plasma after intranasal esketamine 84 mg (Treatment C)
[9] = freeze (−20° C.)/thaw (ice-water bath)
[10] = freeze (−20° C.)/thaw (room temperature)
[11] = stock solutions at room temperature under white light

In the case of `OCCOCCN1CCN(C2=Nc3ccccc3Sc3ccccc32)CC1` [quetiapine], the “Rate of discontinuation due to adverse events” value [1] is given as 23.7%.
In the case of `CN[C@]1(c2ccccc2Cl)CCCCC1=O` [Esketamine 84 mg], the “Withdrawn: Adverse event, % of subjects” value [2] is reported as “(13.9%)”, the “Withdrawn: Adverse event, number of subjects” value [2] is reported as 5 and the “Withdrawn: Lack of Efficacy, % of subjects” value [2] is reported as “(2.8%)”. For the same compound, the “Withdrawn: Lack of Efficacy, number of subjects” value [2] was 1.
With `NC1(c2ccccc2Cl)CCCCC1=O` (stereo not shown) [noresketamine] the “Mean ratio of noresketamine to esketamine, AUClast” value ([3]; 28, 56, 84 mg) was 3.62 to 4.32, the “Mean ratio of noresketamine to esketamine, AUC∞” value ([3]; 28, 56, 84 mg) was 3.80 to 4.46 and the “Mean ratio of noresketamine to esketamine, Cmax” value ([3]; 28, 56, 84 mg) was 1.96 to 2.55. For the same compound, the “Median tmax of noresketamine, range across regimens” value ([3]; healthy subjects, intranasal esketamine 28, 56, 84 mg) was 1.25 to 1.5 h, the “AUC (AUClast and AUC∞) variability” value ([3]; noresketamine in plasma) was 17.0% to 21.3 and the “Between-subject variability for Cmax” value ([3]; noresketamine in plasma) was 25.8% to 33.7. For the same compound, the AUClast [3, 6] was 454 ng·h/mL, the “AUC∞” value [3, 6] was 508 ng·h/mL and the Cmax [3, 6] was 92.8 ng/mL. For the same compound, the t1/2 [3, 6] was 7.74 h, the Tmax [3, 6] was 1.25 h and the AUClast [3, 7] was 851 ng·h/mL. The “AUC∞” value [3, 7] was 924^c h*ng/mL, the Cmax [3, 7] was 154 ng/mL and the t1/2 [3, 7] was 7.71^c h. For the same compound, the Tmax [3, 7] was 1.50 h, the AUClast [3, 8] was 1287 ng·h/mL and the “AUC∞” value [3, 8] was 1392^b h*ng/mL. The Cmax [3, 8] was 241 ng/mL, the t1/2 [3, 8] was 7.48^b h and the Tmax [3, 8] was 1.50 h. For the same compound, the “Metabolite/Parent Ratio AUClast” value ([3]; esketamine 28 mg (Treatment A)) was 3.62, the “Metabolite/Parent Ratio AUC∞” value ([3]; esketamine 28 mg (Treatment A)) was 3.80^b and the “Metabolite/Parent Ratio Cmax” value ([3]; esketamine 28 mg (Treatment A)) was 1.96. The “Metabolite/Parent Ratio AUClast” value ([3]; esketamine 56 mg (Treatment B)) was 4.07, the “Metabolite/Parent Ratio AUC∞” value ([3]; esketamine 56 mg (Treatment B)) was 4.22^b and the “Metabolite/Parent Ratio Cmax” value ([3]; esketamine 56 mg (Treatment B)) was 2.28. The “Metabolite/Parent Ratio AUClast” value ([3]; esketamine 84 mg (Treatment C)) was 4.32, the “Metabolite/Parent Ratio AUC∞” value ([3]; esketamine 84 mg (Treatment C)) was 4.46^d and the “Metabolite/Parent Ratio Cmax” value ([3]; esketamine 84 mg (Treatment C)) was 2.55. For the same compound, the “Mean t1/2, range across regimens” value ([3]; noresketamine, esketamine 28, 56, 84 mg) was 7.48 to 7.74 h.
For `CNC1(c2ccccc2Cl)CCCCC1=O` (racemic) [ketamine, reference compound], the “ED50-value for the induction of neuronal vacuolation in the PCG/RSC” value [4] is listed as 47.5 mg/kg body weight, the “QC sample freeze/thaw stability” value [5, 9] is listed as 3 freeze (−20° C.)/thaw (ice-water bath) cycles and the “QC sample freeze/thaw stability” value [5, 10] is listed as 3 freeze (−20° C.)/thaw (room temperature) cycles. For the same compound, the “QC sample long-term storage stability” value [5] was 1552 days at −20 °C, the “QC sample bench-top stability” value [5] was 68.5 hours at room temp and the “Stock solution stability (spike solutions)” value [5] was 610 days at −20 °C for ketamine/norketamine spike solutions. The Processed sample stability [5] was 146.5 hours at room temperature, the “Whole Blood Stability” value [5] was 120 minutes at room temperature and in an ice-water bath (0-4° C.) and the Stock solution stability [5, 11] was 6 h. For the same compound, the Stock solution stability ([5]; stock solutions at −20° C.) was 15100 h.
With `NC1(c2ccccc2Cl)CCCCC1=O` (stereo not shown) [Norketamine] the “QC sample freeze/thaw stability” value [5, 9] was 3 freeze (−20° C.)/thaw (ice-water bath) cycles, the “QC sample freeze/thaw stability” value [5, 10] was 3 freeze (−20° C.)/thaw (room temperature) cycles and the “QC sample long-term storage stability” value [5] was 1552 days at −20 °C. For the same compound, the “QC sample bench-top stability” value [5] was 68.5 hours at room temp, the “Stock solution stability (spike solutions)” value [5] was 610 days at −20 °C for ketamine/norketamine spike solutions and the Processed sample stability [5] was 146.5 hours at room temperature. The “Whole Blood Stability” value [5] was 120 minutes at room temperature and in an ice-water bath (0-4° C.), the Stock solution stability [5, 11] was 6 h and the Stock solution stability ([5]; stock solutions at −20° C.) was 15100 h.
